Results on ten compounds are retold here after PMC6727436, “Gummosin, a sesquiterpene coumarin from Ferula assa-foetida is preferentially cytotoxic to human breast and prostate cancer cell lines” (Avicenna Journal of Phytomedicine, 2019).

Converted amounts (≈) assume the structure as drawn.

The test system of data set [1] is PC3 human prostate cancer cell line. The data set can be described thus: cells. It is filed as cell-based. Particulars: for IC50: Homo sapiens, 48 h, read-out: IC50 (µg/mL)±SD/Cell line PC3; for IC50 / IC50 (µg/mL)±SD/Cell line PC3: PC3, 48 hr treatment, alamarBlue; for cytotoxic activity at highest dose: PC3, highest dose 50 µg/mL. The procedure:
(§1) Human breast adenocarcinoma cell line (MCF-7), human prostate cancer cell line (PC3) and human normal fibroblast cell line (NIH) were obtained from Biotechnology Research Center (Mashhad, Iran) and subsequently grown in RPMI-1640 medium with 10% fetal bovine serum (Gibco, Invitrogen, Paisley, UK), penicillin (100 units/ml) and streptomycin ([…]) as antibiotics. The cell culture was done in a humidified incubator under the atmosphere of 5% CO2 at 37 °C.
(§2) To measure the cytotoxic activity of pure compounds, a non-fluorescent substrate called resazurin (alamarBlue®; BioSource Invitrogen, Paisley, UK) was used in this study. In this study, we used a method that was previously reported by Haaften et al., with some small modifications (van Haaften et al., 2011). Briefly, when the cells were in the exponential phase, 1×10^4 of the three cell lines were seeded in 96-well plates. The cells were incubated for 24 hr in order to adhere to the plastic surface of the bottom of the wells. After 24 hr, the cells were treated with 6.25, 12.5, 25 and 50 µg/mL of each compound from the stock solution of 5 mg/mL in dimethyl sulfoxide (DMSO) via serial solution prepared using RPMI-1640. The amount of DMSO in final culture media was lower than […]. Also, to rule out the effects of DMSO on cells, equal amount of DMSO was added to the untreated groups. After 48 hr, viability of the cells was measured by adding alamarBlue® reagent (10% of tissue culture volume from stock solution of 0.14 mg/mL). The absorbance of the wells was read at 600 nm using a microplate reader. Doxorubicin at concentrations of 0.1, 1 and 5 µg/mL was used as the positive control and the viability was calculated using following formula:
(§3) T=Absorbance of wells with pure compounds at 600 nm after 48 hr of incubation.
(§4) UT=Absorbance of wells with cell but without any compound at 600 nm after 48 hr of incubation.
(§5) B=Absorbance of blank (without cell and compounds) at 600 nm after 48 hr of incubation.
(§6) In this study, all the experiments were done at least in triplicate.

For data set [2], the system named is MCF-7 human breast adenocarcinoma cell line. The data set can be described thus: cells. It is filed as cell-based. Particulars: for IC50: Homo sapiens, MCF7, 48 h, read-out: IC50 (µg/mL)±SD/Cell line MCF-7; for IC50 / IC50 (µg/mL)±SD/Cell line MCF-7: MCF-7, 48 hr treatment, alamarBlue; for cytotoxic activity at highest dose: MCF-7, highest dose 50 µg/mL. The procedure: as §1, §2, §3, §4, §5, §6

Data set [3] deals with NIH human normal fibroblast cell line. The data set can be described thus: alamarBlue (resazurin) cytotoxicity assay, NIH normal cells. Type of data set: cell-based. Conditions: for IC50: Homo sapiens, Fibroblast, NIH normal cells, 48 hr treatment, alamarBlue, read-out: IC50 (µg/mL)±SD/Cell line NIH. On the procedure:
as §1, §2, §3, §4, §5, §6

Another data set relates to ovarian cancer cell line. Further details: method as in Valiahdi et al., 2013. Conditions: ref Valiahdi et al., 2013; read-out: IC50 against ovarian cancer cell line; cited from earlier work.
On the set-up of data set [4]: method as in Iranshahi, 2018. Particulars: cell line not stated; ref Iranshahi, 2018; cited from earlier work.
The test system of the next data set is cancer cell lines. Further details: method as in Kasaian, et al., 2015. Conditions: ref Kasaian, et al., 2015; cited from earlier work.

Turning to `COc1cccc2c1C(=O)c1c(O)c3c(c(O)c1C2=O)C[C@@](O)(C(=O)CO)C[C@@H]3O[C@H]1C[C@H](N)[C@H](O)[C@H](C)O1` [Doxorubicin, reference compound], the IC50 amounted to 0.62 µg/mL (≈ 1.14 µM) in data set [1] and 0.28 µg/mL (≈ 0.515 µM) in data set [2].
Consider `C=C1CC[C@@H]2C(C)(C)[C@H](O)CC[C@@]2(C)[C@H]1COc1ccc2ccc(=O)oc2c1` [Farnesiferol A], for which the IC50 in data set [1] is over 50 µg/mL; in data set [2] it was over 50 µg/mL; in data set [3], over 100 µg/mL. Further, the “cytotoxic activity at highest dose” value in data set [1] and in data set [2] was “did not show cytotoxic activity” in each case.
Consider `C=C1CC[C@@H](O)C(C)(C)C1CC/C(C)=C/COc1ccc2ccc(=O)oc2c1` (some centres unmarked) [Farnesiferol B], for which the IC50 in data set [1] is under 50 µg/mL; in data set [2] it was under 50 µg/mL; in data set [3], over 100 µg/mL.
Consider `C/C(=C\COc1ccc2ccc(=O)oc2c1)CC[C@@H]1C(C)(C)[C@H]2CC[C@]1(C)O2` [Farnesiferol C], for which, in data set [1], the IC50 is under 50 µg/mL and the “IC50 (µg/mL)±SD/Cell line PC3” value came to 43.1 ± 9.5 µg/mL (≈ 113 µM). In addition, in data set [2], the IC50 is under 50 µg/mL and the “IC50 (µg/mL)±SD/Cell line MCF-7” value is 41.7 ± 8.2 µg/mL (≈ 109 µM). Besides, the IC50 in data set [3] is over 100 µg/mL.
Take `C=C1CCC2C(C)(C)C(O)CCC2(C)C1COc1ccc2ccc(=O)oc2c1` (centres unmarked) [Gummosin]: the results for the IC50 in data set [1], in data set [2] and in data set [3] were under 50 µg/mL, under 50 µg/mL and over 100 µg/mL, respectively. The “IC50 (µg/mL)±SD/Cell line PC3” value in data set [1] stood at 30.0 ± 4.7 µg/mL (≈ 78.4 µM). Besides, the “IC50 (µg/mL)±SD/Cell line MCF-7” value in data set [2] is 32.1 ± 2.3 µg/mL (≈ 83.9 µM). Besides, in data set [3] (NIH normal cell line, at 50 µg/mL), the “toxicity in normal cell line” value is “did not cause any toxicity”.
With `CC1(C)CC[C@H]2C(C)(C)[C@H](O)CC[C@]2(C)[C@H]1COc1ccc2ccc(=O)oc2c1` [Samarcandin], the figures for the IC50 in data set [1], in data set [2] and in data set [3] were over 50 µg/mL, over 50 µg/mL and over 100 µg/mL, respectively. The “cytotoxic activity at highest dose” value in data set [1] and in data set [2] was “unable to induce toxicity” throughout.
As to `CC(C)=CCC/C(C)=C/CC/C(C)=C/COc1ccc2ccc(=O)oc2c1` [Umbelliprenin], the IC50 in data set [1] was over 50 µg/mL; in data set [2], over 50 µg/mL; in data set [3] it was over 100 µg/mL.
For `CC1=CCC2C(C)(C)C(=O)CCC2(C)C1COc1ccc2ccc(=O)oc2c1` (centres unmarked) [conferone], the IC50 with ovarian cancer cell line is 7.79 µM.
`CC(C)=CCC/C(C)=C/CC/C(C)=C/Cc1c(O)c2ccccc2oc1=O` [ferulenol]: the “IC50 (cytotoxic activity)” value in data set [4] is reported as 1 µg/mL (≈ 2.73 µM).
With `CC1=CC[C@@H]2C(C)(C)[C@H](O)CC[C@@]2(C)[C@@H]1COc1ccc2ccc(=O)oc2c1` [feselol, Feselol], in the data set on cancer cell lines, the “activity against cancer cell lines” value was “inactive”.
